Tests used:
Assay type in all cases: biochemical
[1] = target: T1, full-length human PDE4D5 isozyme (Homo sapiens, UniProt Q08499); assay: PDE4 IC50 determination by Scintillation Proximity Assay, PDE4D5; settings: Table 1B, Formula I compounds; read-out: IC50 PDE4D5
T1 construct: The full-length human PDE4D5 isozyme; His6 (N); TEV cleavage site (N); made in house; host or cells: baculovirus infected insect cells (unpurified lysate)
Description: (§1) IC50s were determined by Scintillation Proximity Assay (SPA). The principle of the assay is based on the fact that cAMP, the PDE4 substrate, binds weakly to Yittrium Silicate SPA beads, whereas AMP, the product of PDE4 hydrolysis binds strongly. Thus, the extent of PDE4 hydrolysis of a sample of [^3H]cAMP can be measured because only the
(§2) [^3H]AMP produced by PDE4 hydrolysis will bind to the SPA beads and produce a scintillation signal.
(§3) PDE4 enzymes used for IC50 assays were:
PDE4D5: The full-length human PDE4D5 isozyme with an N-terminal His6 tag (SEQ ID NO: 18) and TEV cleavage site expressed in baculovirus infected insect cells. The enzyme was not purified from the cell lysates, so enzyme concentrations were not determined. Enzyme was stored in 50% glycerol at −20°.
(§4) Compounds tested (see Tables 3B, 4B and 5A for compounds and results) were 3-fold serially diluted 11 times in DMSO from a starting concentration of 4 mM or 40 μM, depending on compound potency. 1 μl of each dilution was transferred into duplicate wells of a white polystyrene 384-well assay plate (Coming #3705). In addition to the compound dilutions, each assay plate contained control wells with 1 μl of DMSO (to define 0% enzyme inhibition) or 1 μl of 200 μM roflumilast (to define 100% enzyme inhibition). Using a Beckman FX robot, 10 μl of [^3H] cAMP (Amersham TRK559) at 2 mCi/ml in assay buffer (50 mM Tris, pH 7.5; 8.3 mM MgCl; 1.7 mM EGTA; 0.01% BSA) was transferred to each assay well. Next, 10 μl of PDE4 enzyme in assay buffer was added and the plates were shaken for 30 s. at 1000 rpm to start the cAMP hydrolysis reaction. The concentrations of enzyme used were: PDE4B, 80 ng/ml; PDE4D, 4 ng/ml; PDE4B2, 2.5 μl of 50% glycerol stock/ml; PDE4D5 0.083 μl of 50% glycerol stock/ml. Assay plates were covered and incubated for 30 min. at 30°. Reactions were stopped by robotic addition of 10 μl of 5 mg/ml SPA beads (Amersham RPNQ0013) in 18 mM ZnSO4. The assay plates were covered with clear plastic film, centrifuged for 1 min. at 1000 RPM to settle the SPA beads, and counted using a Wallac TriLux scintillation counter. IC50's were calculated from the raw assay data by non-linear regression curve fitting using the Assay Explorer software package from MDL.

PDE4D = target: T2, PDE4D (Homo sapiens, UniProt Q08499); assay: PDE4 IC50 determination by Scintillation Proximity Assay, PDE4D; settings: Table 1B, Formula I compounds; read-out: IC50 PDE4D
T2 construct: PDE4D: The catalytic domain of human PDE4B from S3 16-V692; His6 (N); thrombin cleavage site (N); made in house; host or cells: E. coli
Outline: (§5)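 Scintillation counts reflected [^3H]AMP captured on yttrium silicate SPA beads after enzyme hydrolysed [^3H]cAMP for 30 min at 30°. PDE4B was used at 80 ng/ml and PDE4D at 4 ng/ml. IC50 values came from non-linear regression.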

[2] = target: T3, PDE4B: The catalytic domain of human PDE4B from S152-S528 (Homo sapiens, UniProt Q07343); assay: PDE4 IC50 determination by Scintillation Proximity Assay, PDE4B; settings: Table 1B, Formula I compounds; read-out: IC50 PDE4B
T3 construct: His6 (N); thrombin cleavage site (N); made in house; host or cells: E. coli
Outline: as §5

[3] = target: T4, full-length human PDE4B2 isozyme (Homo sapiens, UniProt Q07343); assay: PDE4 IC50 determination by Scintillation Proximity Assay, PDE4B2; settings: Table 1B, Formula I compounds; read-out: IC50 PDE4B2
T4 construct: The full-length human PDE4B2 isozyme; His6 (N); TEV cleavage site (N); made in house; host or cells: baculovirus infected insect cells (unpurified lysate)
Description: as §1, §2, §3
PDE4B2: The full-length human PDE4B2 isozyme with an N-terminal His6 tag (SEQ ID NO: 18) and TEV cleavage site expressed in baculovirus infected insect cells. The enzyme was not purified from the cell lysates, so enzyme concentrations were not determined. Enzyme was stored in 50% glycerol at −20°.
as §4

T3 sequence (Q07343 with tags, fused parts or gaps): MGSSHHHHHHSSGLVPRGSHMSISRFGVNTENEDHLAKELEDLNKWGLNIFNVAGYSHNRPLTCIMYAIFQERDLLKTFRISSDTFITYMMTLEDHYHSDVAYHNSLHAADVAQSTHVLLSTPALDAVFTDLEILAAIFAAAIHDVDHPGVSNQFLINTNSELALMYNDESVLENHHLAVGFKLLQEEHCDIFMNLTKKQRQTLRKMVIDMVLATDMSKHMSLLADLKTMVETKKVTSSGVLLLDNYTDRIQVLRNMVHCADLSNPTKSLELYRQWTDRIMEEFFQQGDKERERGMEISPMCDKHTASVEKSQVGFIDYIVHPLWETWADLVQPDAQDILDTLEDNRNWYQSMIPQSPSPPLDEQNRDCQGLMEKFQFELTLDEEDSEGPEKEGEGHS
T1 sequence (Q08499 1-745 isoform Q08499-6): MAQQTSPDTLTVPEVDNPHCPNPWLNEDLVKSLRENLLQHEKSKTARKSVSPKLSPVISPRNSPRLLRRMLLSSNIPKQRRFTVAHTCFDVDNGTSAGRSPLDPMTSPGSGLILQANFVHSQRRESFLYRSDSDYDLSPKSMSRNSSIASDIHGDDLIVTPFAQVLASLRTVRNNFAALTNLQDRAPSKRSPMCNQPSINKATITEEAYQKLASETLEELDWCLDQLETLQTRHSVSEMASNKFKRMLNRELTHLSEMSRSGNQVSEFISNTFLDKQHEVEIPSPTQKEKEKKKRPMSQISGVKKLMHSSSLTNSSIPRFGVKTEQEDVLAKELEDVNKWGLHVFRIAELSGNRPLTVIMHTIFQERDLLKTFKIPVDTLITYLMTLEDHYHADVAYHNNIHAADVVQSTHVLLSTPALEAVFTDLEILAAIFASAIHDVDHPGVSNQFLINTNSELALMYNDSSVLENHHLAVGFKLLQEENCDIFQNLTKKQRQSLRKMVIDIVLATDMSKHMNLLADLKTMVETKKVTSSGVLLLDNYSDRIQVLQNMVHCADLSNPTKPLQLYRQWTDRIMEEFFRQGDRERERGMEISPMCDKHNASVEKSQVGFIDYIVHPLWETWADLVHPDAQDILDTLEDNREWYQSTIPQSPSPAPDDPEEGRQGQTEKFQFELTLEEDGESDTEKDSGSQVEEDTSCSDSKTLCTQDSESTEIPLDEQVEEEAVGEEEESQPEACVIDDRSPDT
T2 sequence (Q08499 380-756): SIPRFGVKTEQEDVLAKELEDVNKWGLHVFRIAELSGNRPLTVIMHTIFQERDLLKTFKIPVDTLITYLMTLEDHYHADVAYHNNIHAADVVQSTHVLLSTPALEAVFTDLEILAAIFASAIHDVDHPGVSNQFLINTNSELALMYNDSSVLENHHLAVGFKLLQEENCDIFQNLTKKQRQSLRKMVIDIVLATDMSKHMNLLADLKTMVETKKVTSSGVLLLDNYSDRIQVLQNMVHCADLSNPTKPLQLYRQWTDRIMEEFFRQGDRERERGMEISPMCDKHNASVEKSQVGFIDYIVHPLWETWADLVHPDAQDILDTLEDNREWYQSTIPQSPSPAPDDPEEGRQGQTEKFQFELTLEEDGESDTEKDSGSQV
T4 sequence (Q07343 1-564 isoform Q07343-2): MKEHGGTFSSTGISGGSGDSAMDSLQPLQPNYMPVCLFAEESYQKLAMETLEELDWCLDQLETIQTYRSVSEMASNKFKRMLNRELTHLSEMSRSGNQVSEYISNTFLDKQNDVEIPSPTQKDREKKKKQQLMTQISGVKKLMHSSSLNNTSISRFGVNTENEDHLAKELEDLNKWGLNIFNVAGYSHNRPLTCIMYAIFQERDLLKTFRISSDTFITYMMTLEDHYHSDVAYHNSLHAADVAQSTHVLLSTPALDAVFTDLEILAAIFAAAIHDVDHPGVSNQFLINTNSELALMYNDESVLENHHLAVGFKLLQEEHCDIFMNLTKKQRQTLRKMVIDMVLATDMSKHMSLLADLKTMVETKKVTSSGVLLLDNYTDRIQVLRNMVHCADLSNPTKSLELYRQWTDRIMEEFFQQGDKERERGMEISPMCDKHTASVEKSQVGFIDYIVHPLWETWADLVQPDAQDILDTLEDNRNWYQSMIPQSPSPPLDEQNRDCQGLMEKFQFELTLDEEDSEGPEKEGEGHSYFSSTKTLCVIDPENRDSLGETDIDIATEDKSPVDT

SMILES | IC50 [1] | IC50 (PDE4D) | IC50 [2] | IC50 [3]
COc1ccc(CNc2sc(C(=O)c3ccc(-c4ccccn4)s3)c(N)c2C#N)cc1OC [Compound 1-75, 4-Amino-2-(3,4-dimethoxy-benzylamino)-5-(5-pyridin-2-yl-thiophene-2-carbonyl)-thiophene-3-carbonitrile] | < 10 µM | < 10 µM | < 10 µM | < 10 µM
N#Cc1c(Nc2ccc(C(=O)NC3CCOC3=O)cc2)sc(C(=O)c2ccc(-c3ccccn3)s2)c1N (stereo not drawn) [Compound 1-77, 4-[4-Amino-3-cyano-5-(5-pyridin-2-yl-thiophene-2-carbonyl)-thiophen-2-ylamino]-N-(2-oxo-tetrahydro-furan-3-yl)-benzamide] | < 10 µM | < 10 µM | < 10 µM | < 10 µM
N#Cc1c(NC2CCCC2)sc(C(=O)c2ccc(-c3ccccn3)s2)c1N [Compound 1-78, 4-Amino-2-cyclopentylamino-5-(5-pyridin-2-yl-thiophene-2-carbonyl)-thiophene-3-carbonitrile] | < 10 µM | < 10 µM | < 10 µM | < 10 µM
CCc1ccccc1Nc1sc(C(=O)c2ccc(-c3ccccn3)s2)c(N)c1C#N [Compound 1-81, 4-Amino-2-(2-ethyl-phenylamino)-5-(5-pyridin-2-yl-thiophene-2-carbonyl)-thiophene-3-carbonitrile] | > 10 µM | < 10 µM | < 10 µM | > 10 µM
N#Cc1c(NCCN2CCCCC2)sc(C(=O)c2cc(-c3ccc(Cl)cc3Cl)no2)c1N [Compound 1-82, 4-Amino-5-[3-(2,4-dichloro-phenyl)-isoxazole-5-carbonyl]-2-(2-piperidin-1-yl-ethylamino)-thiophene-3-carbonitrile] | > 10 µM | > 10 µM | > 10 µM | > 10 µM
N#Cc1c(NCCN2CCCCC2)sc(C(=O)c2cc(-c3ccc(Cl)c(Cl)c3)no2)c1N [Compound 1-83, 4-Amino-5-[3-(3,4-dichloro-phenyl)-isoxazole-5-carbonyl]-2-(2-piperidin-1-yl-ethylamino)-thiophene-3-carbonitrile] | > 10 µM | > 10 µM | > 10 µM | > 10 µM
COc1ccc(Nc2sc(C(=O)c3ccc(C)cc3C)c(N)c2C#N)cc1 [Compound 1-85] | < 10 µM | < 10 µM | < 10 µM | < 10 µM
Cc1ccc(C(=O)c2sc(NC(=O)c3ccccc3C)c(C#N)c2N)c(C)c1 [Compound 1-86, N-[4-Amino-3-cyano-5-(2,4-dimethyl-benzoyl)-thiophen-2-yl]-2-methyl-benzamide] | > 10 µM | < 10 µM | < 10 µM | > 10 µM
Cc1ccc(C(=O)c2sc(NC3CCCC3)c(C#N)c2N)c(C)c1 [Compound 1-90, 4-Amino-2-cyclopentylamino-5-(2,4-dimethyl-benzoyl)-thiophene-3-carbonitrile] | < 10 µM | < 10 µM | < 10 µM | < 10 µM
CCc1ccccc1Nc1sc(C(=O)c2cc(OC)ccc2OC)c(N)c1C#N [Compound 1-99, 4-Amino-5-(2,5-dimethoxy-benzoyl)-2-(2-ethyl-phenylamino)-thiophene-3-carbonitrile] | < 10 µM | < 10 µM | < 10 µM | < 10 µM
Cc1c(C(=O)c2sc(Nc3cccc(C#N)c3)c(C#N)c2N)cnn1-c1ccccc1 [Compound 1-125, 4-Amino-2-(3-cyano-phenylamino)-5-(5-methyl-1-phenyl-1H-pyrazole-4-carbonyl)-thiophene-3-carbonitrile] | < 10 µM | < 10 µM | < 10 µM | < 10 µM
COc1ccc(Nc2sc(C(=O)c3c(-c4ccccc4)noc3C)c(N)c2C#N)cc1 [Compound 1-129, 4-Amino-2-(4-methoxy-phenylamino)-5-(5-methyl-3-phenyl-isoxazole-4-carbonyl)-thiophene-3-carbonitrile] | < 10 µM | < 10 µM | < 10 µM | < 10 µM
COC(=O)c1ccccc1Nc1sc(C(=O)c2c(-c3ccccc3)noc2C)c(N)c1C#N [Compound 1-130, 2-[4-Amino-3-cyano-5-(5-methyl-3-phenyl-isoxazole-4-carbonyl)-thiophen-2-ylamino]-benzoic acid methyl ester] | < 10 µM | < 10 µM | < 10 µM | < 10 µM
CCOC(=O)c1cc(C(=O)c2sc(NC3CCCC3)c(C#N)c2N)on1 [Compound 1-139, 5-(3-Amino-4-cyano-5-cyclopentylamino-thiophene-2-carbonyl)-isoxazole-3-carboxylic acid ethyl ester] | < 10 µM | < 10 µM | < 10 µM | < 10 µM
COc1ccc(C(=O)c2sc(Nc3cccc(C#N)c3)c(C#N)c2N)c(OC)c1 [Compound 1-155, 4-Amino-2-(3-cyano-phenylamino)-5-(2,4-dimethoxy-benzoyl)-thiophene-3-carbonitrile] | < 10 µM | < 10 µM | < 10 µM | < 10 µM
N#Cc1c(NC2CCCC2)sc(C(=O)c2cc(-c3ccc(Cl)c(Cl)c3)no2)c1N [Compound 1-172, 4-Amino-2-cyclopentylamino-5-[3-(3-4-dichloro-phenyl)-isoxazole-5-carbonyl]-thiophene-3-carbonitrile] | > 10 µM | > 10 µM | < 10 µM | < 10 µM
CSc1cccc(Nc2sc(C(=O)c3ccccc3Cl)c(N)c2C#N)c1 [Compound 1-180, 4-Amino-5-(2-chloro-benzoyl)-2-(3-methylsulfanyl-phenylamino)-thiophene-3-carbonitrile] | < 10 µM | < 10 µM | < 10 µM | < 10 µM
N#Cc1c(Nc2ccc(Oc3ccccc3)cc2)sc(C(=O)c2cc(-c3ccccc3)no2)c1N [Compound 1-187, 4-Amino-2-(4-phenoxy-phenylamino)-5-(3-phenyl-isoxazole-5-carbonyl)-thiophene-3-carbonitrile] | > 10 µM | > 10 µM | > 10 µM | > 10 µM
CCNC(=O)c1cc(C(=O)c2sc(NC3CCCC3)c(C#N)c2N)on1 [Compound 1-198, 5-(3-Amino-4-cyano-5-cyclopentylamino-thiophene-2-carbonyl)-isoxazole-3-carboxylic acid ethylamide] | > 10 µM | < 10 µM | < 10 µM | > 10 µM
CCOC(=O)c1c(NC2CCCC2)sc(C(=O)c2cc(-c3ccccc3)no2)c1N [Compound 1-200, 4-Amino-2-cyclopentylamino-5-(3-phenyl-isoxazole-5-carbonyl)-thiophene-3-carboxylic acid ethyl ester] | > 10 µM | < 10 µM | > 10 µM | > 10 µM
N#Cc1c(NC2CCCCC2)sc(C(=O)c2cc(-c3ccccc3)no2)c1N [Compound 1-204, 4-Amino-2-cyclohexylamino-5-(3-phenyl-isoxazole-5-carbonyl)-thiophene-3-carbonitrile] | > 10 µM | > 10 µM | > 10 µM | > 10 µM

Reference: patent US7585859B2, “PDE4B inhibitors and uses therefor” (Plexxikon, Inc., priority 2004, dated 2009)
